Assay results: patent publication US20260116910A1, “POLYCYCLIC COMPOUNDS AND METHODS THEREOF” (HEPAITECH (BEIJING) BIOPHARMA TECHNOLOGY CO., LTD., priority 2021, published 2026)
“And” between values parts separate entries of the source, which are not always exact repeats. Equal entries are not always repeated. Where two headings read alike, the source gives them in different places.

Tests used:
[1] = target: T1, human FXR (NR1H4) (Homo sapiens, UniProt Q96RI1); assay: Human FXR (NR1H4) agonist assessment, FXRE-NanoLuc reporter in HEK293T cells; type: cell-based
T1 sequence (Q96RI1 1-476 isoform Q96RI1-1): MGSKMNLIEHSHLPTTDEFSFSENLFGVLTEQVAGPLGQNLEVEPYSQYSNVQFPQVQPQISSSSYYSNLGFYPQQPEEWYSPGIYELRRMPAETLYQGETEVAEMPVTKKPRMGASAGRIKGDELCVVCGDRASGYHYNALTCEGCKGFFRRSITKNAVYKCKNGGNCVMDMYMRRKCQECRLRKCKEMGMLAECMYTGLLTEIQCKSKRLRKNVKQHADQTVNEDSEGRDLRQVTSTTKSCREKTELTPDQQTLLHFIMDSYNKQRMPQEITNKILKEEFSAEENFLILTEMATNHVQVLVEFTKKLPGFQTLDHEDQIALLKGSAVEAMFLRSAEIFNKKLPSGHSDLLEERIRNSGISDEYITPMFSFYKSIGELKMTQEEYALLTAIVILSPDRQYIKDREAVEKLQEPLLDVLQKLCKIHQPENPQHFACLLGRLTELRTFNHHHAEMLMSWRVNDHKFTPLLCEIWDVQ
Summary of the method: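 HEK293T cells stably expressing human FXR with an FXRE-NanoLuc reporter were treated with compounds for 24 hr at 37 °C, with 0.01% DMSO as negative control. Medium was read for luminescence after 5 min with coelenterazine. EC50 was fitted by sigmoid to concentration-response data.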

[2] = target: MRGPRX4 (Homo sapiens, UniProt Q96LA9); assay: MRGPRX4 activation, Fluo-8 Ca2+ FLIPR assay in HEK293T cells stably expressing MRGPRX4; type: cell-based; design: key to MRGPRX4 activation, Average / MRGPRX4 activation, Ave.: fluorescence change dF/F0
Chain of MRGPRX4 (Q96LA9 whole entry): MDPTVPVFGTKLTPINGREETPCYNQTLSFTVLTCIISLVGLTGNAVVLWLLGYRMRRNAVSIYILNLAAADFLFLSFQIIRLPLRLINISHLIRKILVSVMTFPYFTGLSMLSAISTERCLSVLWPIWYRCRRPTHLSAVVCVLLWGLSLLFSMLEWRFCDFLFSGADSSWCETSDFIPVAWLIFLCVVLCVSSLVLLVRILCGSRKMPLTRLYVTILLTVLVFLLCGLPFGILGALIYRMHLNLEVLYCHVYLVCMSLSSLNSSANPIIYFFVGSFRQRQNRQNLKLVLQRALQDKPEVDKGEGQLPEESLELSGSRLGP
Summary of the method: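 Cells seeded overnight to >95% confluence, loaded 40-60 min at room temperature with 2 μM Fluo-8 AM, then kept in HHBS. Baseline read 30 s, compound added, signal followed 150 s more.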

[3] = FXR activation, HEK293T FXRE-NanoLuc reporter, 24 hr
[4] = FXR activation, HEK293T FXRE-NanoLuc reporter, 24 hr, read-out: EC50
[5] = MRGPRX4 activation, Ca2+ fluorescence, no activation in tested range reported as III, read-out: Activity (EC50 μM)

Structure (SMILES)	Efficacy (maximum measured induction of NanoLuc, normalized to CDCA set as 100%) [1, 3]	EC50 [1, 4] [µM]	MRGPRX4 activation, Average ([2]; E3-9, Conc. (Log[M]) −4.0)	MRGPRX4 activation, Average ([2]; E3-9, Conc. (Log[M]) −4.5)	MRGPRX4 activation, Average ([2]; E3-9, Conc. (Log[M]) −5.0)	MRGPRX4 activation, Average ([2]; E3-9, Conc. (Log[M]) −5.4)	MRGPRX4 activation, Average ([2]; E3-9, Conc. (Log[M]) −5.9)	MRGPRX4 activation, Average ([2]; E3-9, Conc. (Log[M]) −6.4)	MRGPRX4 activation, Average ([2]; E3-9, Conc. (Log[M]) −6.9)	MRGPRX4 activation, Average ([2]; E3-9, Conc. (Log[M]) −7.3)	MRGPRX4 activation, Average ([2]; E3-9, Conc. (Log[M]) −7.8)	MRGPRX4 activation, Average ([2]; E3-9, Conc. (Log[M]) −8.3)	EC50 [2, 5] [µM]	other results
CC[C@H]1[C@@H](O)[C@@H]2[C@H](CC[C@]3(C)[C@@H]([C@H](C)CCNC(=O)NS(=O)(=O)c4ccc(Br)cc4OC(F)(F)F)CC[C@@H]23)[C@@]2(C)CC[C@H](F)C[C@@H]12 [9-6]	C (100%<efficacy <=300%)	< 1	0.021	0.014	0.016	0.010	0.019	0.018	0.016	0.014	0.012	0.016	> 100	–
CC[C@H]1[C@@H](O)[C@@H]2[C@H](CC[C@]3(C)[C@@H]([C@H](C)CCC(=O)NS(C)(=O)=O)CC[C@@H]23)[C@@]2(C)CC[C@H](F)C[C@@H]12 [9-7]	A (efficacy >400%)	1 to 10	–	–	–	–	–	–	–	–	–	–	> 100	MRGPRX4 activation, fluorescence change (dF/F0), Average ([2]; Conc. (Log[M]) −4.5): 0.022 and 0.037
CC[C@H]1[C@@H](O)[C@@H]2[C@H](CC[C@]3(C)[C@@H]([C@H](C)CCNC(=O)NS(=O)(=O)c4ccc(C(C)(C)CF)cc4)CC[C@@H]23)[C@@]2(C)CCC(F)(F)C[C@@H]12 [10-1]	B (300%<efficacy <=400%)	< 1	0.025	0.016	0.021	0.018	0.019	0.016	0.018	0.016	0.008	0.010	> 100	–
CC[C@H]1[C@@H](O)[C@@H]2[C@H](CC[C@]3(C)[C@@H]([C@H](C)CCNC(=O)NS(=O)(=O)c4cc(F)ccc4F)CC[C@@H]23)[C@@]2(C)CCC(F)(F)C[C@@H]12 [10-2]	C (100%<efficacy <=300%)	< 1	0.006	0.004	0.010	0.018	0.018	0.019	0.021	0.019	0.018	0.018	> 100	–
CC[C@H]1[C@@H](O)[C@@H]2[C@H](CC[C@]3(C)[C@@H]([C@H](C)CCNC(=O)NS(=O)(=O)c4cc(F)cc(F)c4)CC[C@@H]23)[C@@]2(C)CCC(F)(F)C[C@@H]12 [10-3]	C (100%<efficacy <=300%)	< 1	0.010	0.004	0.014	0.016	0.023	0.018	0.023	0.021	0.012	0.018	> 100	–
CC[C@H]1[C@@H](O)[C@@H]2[C@H](CC[C@]3(C)[C@@H]([C@H](C)CCNC(=O)NS(=O)(=O)c4cccs4)CC[C@@H]23)[C@@]2(C)CCC(F)(F)C[C@@H]12 [10-4]	C (100%<efficacy <=300%)	< 1	−0.004	0.001	0.008	0.022	0.013	0.015	0.013	0.010	0.010	0.020	> 100	–
CC[C@H]1[C@@H](O)[C@@H]2[C@H](CC[C@]3(C)[C@@H]([C@H](C)CCN=C=S)CC[C@@H]23)[C@@]2(C)CCC(F)(F)C[C@@H]12 [11-2]	D (efficacy <=100%)	–	0.030	0.020	0.010	0.020	0.020	0.013	0.013	0.013	0.013	0.025	–	EC50 [1]: > 10 µM; EC50 [2]: > 100 µM
CC[C@H]1[C@@H](O)[C@@H]2[C@H](CC[C@]3(C)[C@@H]([C@H](C)CCNC(=S)NS(=O)(=O)c4cccs4)CC[C@@H]23)[C@@]2(C)CCC(F)(F)C[C@@H]12 [11-3]	–	< 1	0.003	0.010	0.015	0.015	0.015	0.008	0.010	0.015	0.018	0.051	> 100	Efficacy (maximum measured induction of NanoLuc, normalized to CDCA set as 100%) [1]: C (key: A: efficacy >400%; B: 300%<efficacy <=400%; C: 100%<efficacy <=300%; D: efficacy <=100%)
CC[C@H]1[C@@H](O)[C@@H]2[C@H](CC[C@]3(C)[C@@H]([C@H](C)CCNC(=S)NS(=O)(=O)c4ccc(C(C)(C)CF)cc4)CC[C@@H]23)[C@@]2(C)CCC(F)(F)C[C@@H]12 [11-4]	–	< 1	0.013	0.013	0.020	0.015	0.015	0.013	0.010	0.015	0.015	0.022	> 100	Efficacy (maximum measured induction of NanoLuc, normalized to CDCA set as 100%) [1]: B (key: A: efficacy >400%; B: 300%<efficacy <=400%; C: 100%<efficacy <=300%; D: efficacy <=100%)
[2H]C1([2H])CC[C@@]2(C)[C@@H](C1)[C@@H](CC)[C@@H](O)[C@@H]1[C@@H]2CC[C@]2(C)[C@@H]([C@H](C)CCNC(=O)NS(=O)(=O)c3ccc(C(C)(C)CF)cc3)CC[C@@H]12 [12-2]	A (efficacy >400%)	< 1	–	–	–	–	–	–	–	–	–	–	> 100	MRGPRX4 activation, Ave. ([2]; E3-7, Conc. (Log[M]) −4): 0.000; MRGPRX4 activation, Ave. ([2]; E3-7, Conc. (Log[M]) −4.5): −0.041; MRGPRX4 activation, Ave. ([2]; E3-7, Conc. (Log[M]) −5): −0.041; MRGPRX4 activation, Ave. ([2]; E3-7, Conc. (Log[M]) −5.5): −0.054; MRGPRX4 activation, Ave. ([2]; E3-7, Conc. (Log[M]) −6): −0.041; MRGPRX4 activation, Ave. ([2]; E3-7, Conc. (Log[M]) −7): −0.027
